Measurements from the kinase profiling compilation of Christmann-Franck et al. (2016).

What was measured:
Assay in all cases: radiometric filter-binding kinase assay
JAK2 JH1 JH2 (human) = JAK2 JH1 JH2 (human) (UniProt O60674)
DYRK3 (human) = DYRK3 (human) (UniProt O43781)
EPHB2 (human) = EPHB2 (human) (UniProt P29323)
EPHB4 (human) = EPHB4 (human) (UniProt P54760)
BRSK1 (human) = BRSK1 (human) (UniProt Q8TDC3)
EPHA2 (human) = EPHA2 (human) (UniProt P29317)
MAPK8 (human) = MAPK8 (human) (UniProt P45983)
AURKA (human) = AURKA (human) (UniProt O14965)
MARK3 (human) = MARK3 (human) (UniProt P27448)
MAPK9 (human) = MAPK9 (human) (UniProt P45984)
[1] = test system: RPS6KB1 (human), P23443 [T412E]
MAPKAPK5 (human) = MAPKAPK5 (human) (UniProt Q8IW41)
BRSK2 (human) = BRSK2 (human) (UniProt Q8IWQ3)
CaMK1 (human) = CaMK1 (human) (UniProt Q14012)
MAP2K1 (human) = MAP2K1 (human) (UniProt Q02750)
BTK (human) = BTK (human) (UniProt Q06187)
FLT1 (human) = FLT1 (human) (UniProt P17948)
PIM1 (human) = PIM1 (human) (UniProt P11309)
PRKCA (human) = PRKCA (human) (UniProt P17252)
HIPK2 (human) = HIPK2 (human) (UniProt Q9H2X6)
SYK (human) = SYK (human) (UniProt P43405)
EPHB1 (human) = EPHB1 (human) (UniProt P54762)
TAOK1 (human) = TAOK1 (human) (UniProt Q7L7X3)
GCK (human) = GCK (human) (UniProt Q12851)
YES1 (human) = YES1 (human) (UniProt P07947)
[2] = test system: AKT1 (human), P31749 [S473D]
DYRK2 (human) = DYRK2 (human) (UniProt Q92630)
STK3 (human) = STK3 (human) (UniProt Q13188)
MAP3K11 (human) = MAP3K11 (human) (UniProt Q16584)
MAP3K5 (human) = MAP3K5 (human) (UniProt Q99683)
HIPK1 (human) = HIPK1 (human) (UniProt Q86Z02)
TBK1 (human) = TBK1 (human) (UniProt Q9UHD2)
MAPK10 (human) = MAPK10 (human) (UniProt P53779)
MAP3K1 (human) = MAP3K1 (human) (UniProt Q13233)
INSR (human) = INSR (human) (UniProt P06213); conditions: compound 10.0 µM
MAPK11 (human) = MAPK11 (human) (UniProt Q15759); conditions: compound 10.0 µM

Sequence of MAPK9 (human) (P45984 whole entry, looked up): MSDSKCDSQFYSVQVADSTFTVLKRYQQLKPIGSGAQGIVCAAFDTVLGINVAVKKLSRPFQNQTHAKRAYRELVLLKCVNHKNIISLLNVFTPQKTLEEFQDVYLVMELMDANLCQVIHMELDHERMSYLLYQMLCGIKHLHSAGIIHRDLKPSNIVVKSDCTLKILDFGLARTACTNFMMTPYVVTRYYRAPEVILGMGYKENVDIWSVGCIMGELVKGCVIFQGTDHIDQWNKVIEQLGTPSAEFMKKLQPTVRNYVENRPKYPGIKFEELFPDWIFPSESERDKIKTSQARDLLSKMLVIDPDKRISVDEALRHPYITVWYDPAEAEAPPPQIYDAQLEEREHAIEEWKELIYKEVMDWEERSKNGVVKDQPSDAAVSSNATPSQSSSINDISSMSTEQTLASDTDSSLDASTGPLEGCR
Sequence of MAPK10 (human) (P53779 whole entry, looked up): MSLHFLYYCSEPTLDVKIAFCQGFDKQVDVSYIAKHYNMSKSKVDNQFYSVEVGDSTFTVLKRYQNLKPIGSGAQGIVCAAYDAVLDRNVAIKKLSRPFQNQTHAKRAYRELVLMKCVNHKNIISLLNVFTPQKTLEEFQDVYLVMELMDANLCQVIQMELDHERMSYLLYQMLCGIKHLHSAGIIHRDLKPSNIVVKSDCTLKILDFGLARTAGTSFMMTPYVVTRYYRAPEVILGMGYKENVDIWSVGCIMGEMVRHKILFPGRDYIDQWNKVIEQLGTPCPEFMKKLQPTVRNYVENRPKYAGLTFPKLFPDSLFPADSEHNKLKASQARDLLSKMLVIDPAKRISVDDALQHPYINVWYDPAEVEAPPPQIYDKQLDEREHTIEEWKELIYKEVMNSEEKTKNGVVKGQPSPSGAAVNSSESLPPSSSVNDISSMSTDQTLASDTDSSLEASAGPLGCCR
Sequence of RPS6KB1 (human), P23443 [T412E] (P23443 whole entry T412E, looked up): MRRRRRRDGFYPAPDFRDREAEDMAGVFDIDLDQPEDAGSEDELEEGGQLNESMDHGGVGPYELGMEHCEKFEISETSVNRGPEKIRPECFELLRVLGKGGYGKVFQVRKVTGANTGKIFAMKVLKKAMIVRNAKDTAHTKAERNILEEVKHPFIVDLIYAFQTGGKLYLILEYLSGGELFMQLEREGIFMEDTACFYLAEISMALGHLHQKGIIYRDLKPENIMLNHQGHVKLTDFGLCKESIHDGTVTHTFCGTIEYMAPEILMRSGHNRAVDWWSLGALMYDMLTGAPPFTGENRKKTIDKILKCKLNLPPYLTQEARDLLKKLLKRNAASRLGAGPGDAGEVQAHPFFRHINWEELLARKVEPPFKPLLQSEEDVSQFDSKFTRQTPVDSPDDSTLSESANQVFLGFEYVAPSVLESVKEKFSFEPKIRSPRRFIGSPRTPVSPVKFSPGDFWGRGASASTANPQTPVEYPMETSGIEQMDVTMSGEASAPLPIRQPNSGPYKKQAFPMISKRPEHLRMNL
Sequence of MAP2K1 (human) (Q02750 whole entry, looked up): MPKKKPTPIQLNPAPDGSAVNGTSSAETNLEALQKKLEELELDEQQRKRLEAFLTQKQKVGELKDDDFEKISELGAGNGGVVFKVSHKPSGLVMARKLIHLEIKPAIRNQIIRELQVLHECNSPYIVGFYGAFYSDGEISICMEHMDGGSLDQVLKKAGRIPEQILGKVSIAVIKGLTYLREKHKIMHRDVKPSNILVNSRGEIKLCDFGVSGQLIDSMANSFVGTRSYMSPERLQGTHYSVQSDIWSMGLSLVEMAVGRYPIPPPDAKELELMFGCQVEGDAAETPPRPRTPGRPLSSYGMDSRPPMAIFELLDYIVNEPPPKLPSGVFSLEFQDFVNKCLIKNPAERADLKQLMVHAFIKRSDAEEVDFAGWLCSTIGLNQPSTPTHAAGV
Sequence of MAPKAPK5 (human) (Q8IW41 whole entry, looked up): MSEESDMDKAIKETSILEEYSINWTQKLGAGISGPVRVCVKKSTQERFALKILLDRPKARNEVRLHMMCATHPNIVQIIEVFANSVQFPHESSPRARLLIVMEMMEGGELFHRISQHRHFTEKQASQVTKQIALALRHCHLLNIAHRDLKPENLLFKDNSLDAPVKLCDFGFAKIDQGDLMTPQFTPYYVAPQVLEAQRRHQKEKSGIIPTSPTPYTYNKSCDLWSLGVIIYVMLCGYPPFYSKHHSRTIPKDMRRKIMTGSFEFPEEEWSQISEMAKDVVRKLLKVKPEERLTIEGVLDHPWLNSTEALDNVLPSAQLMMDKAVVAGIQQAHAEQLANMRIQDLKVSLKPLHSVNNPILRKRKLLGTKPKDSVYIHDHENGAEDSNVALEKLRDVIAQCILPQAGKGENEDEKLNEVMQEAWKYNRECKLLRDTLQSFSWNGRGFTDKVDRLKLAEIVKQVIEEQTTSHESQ
Sequence of YES1 (human) (P07947 whole entry, looked up): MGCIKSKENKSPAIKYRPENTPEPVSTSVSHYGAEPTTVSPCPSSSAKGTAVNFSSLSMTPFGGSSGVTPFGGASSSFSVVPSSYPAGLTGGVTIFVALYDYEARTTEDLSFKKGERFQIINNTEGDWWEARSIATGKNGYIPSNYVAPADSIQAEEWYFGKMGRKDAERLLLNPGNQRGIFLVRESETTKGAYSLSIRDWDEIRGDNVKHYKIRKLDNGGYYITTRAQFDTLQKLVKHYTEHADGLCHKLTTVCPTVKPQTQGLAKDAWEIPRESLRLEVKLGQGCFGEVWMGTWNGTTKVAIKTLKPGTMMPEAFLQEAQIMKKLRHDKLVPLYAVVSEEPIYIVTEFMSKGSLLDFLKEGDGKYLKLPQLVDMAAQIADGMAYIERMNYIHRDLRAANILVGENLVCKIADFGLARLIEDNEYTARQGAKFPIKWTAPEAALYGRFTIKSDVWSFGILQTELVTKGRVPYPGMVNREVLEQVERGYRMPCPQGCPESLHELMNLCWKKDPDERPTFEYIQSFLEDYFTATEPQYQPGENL
Sequence of AURKA (human) (O14965 whole entry, looked up): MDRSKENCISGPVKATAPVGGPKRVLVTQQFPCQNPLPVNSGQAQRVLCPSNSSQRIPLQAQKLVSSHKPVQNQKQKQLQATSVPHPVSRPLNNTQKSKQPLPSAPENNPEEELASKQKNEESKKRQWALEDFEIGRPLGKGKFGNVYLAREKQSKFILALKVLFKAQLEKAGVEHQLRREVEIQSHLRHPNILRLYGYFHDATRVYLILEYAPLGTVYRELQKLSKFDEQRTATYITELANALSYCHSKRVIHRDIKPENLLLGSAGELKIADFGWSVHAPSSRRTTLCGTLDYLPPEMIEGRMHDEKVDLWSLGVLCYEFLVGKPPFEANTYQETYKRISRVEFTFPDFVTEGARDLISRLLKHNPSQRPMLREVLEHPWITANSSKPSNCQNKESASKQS
Sequence of DYRK2 (human) (Q92630 whole entry, looked up): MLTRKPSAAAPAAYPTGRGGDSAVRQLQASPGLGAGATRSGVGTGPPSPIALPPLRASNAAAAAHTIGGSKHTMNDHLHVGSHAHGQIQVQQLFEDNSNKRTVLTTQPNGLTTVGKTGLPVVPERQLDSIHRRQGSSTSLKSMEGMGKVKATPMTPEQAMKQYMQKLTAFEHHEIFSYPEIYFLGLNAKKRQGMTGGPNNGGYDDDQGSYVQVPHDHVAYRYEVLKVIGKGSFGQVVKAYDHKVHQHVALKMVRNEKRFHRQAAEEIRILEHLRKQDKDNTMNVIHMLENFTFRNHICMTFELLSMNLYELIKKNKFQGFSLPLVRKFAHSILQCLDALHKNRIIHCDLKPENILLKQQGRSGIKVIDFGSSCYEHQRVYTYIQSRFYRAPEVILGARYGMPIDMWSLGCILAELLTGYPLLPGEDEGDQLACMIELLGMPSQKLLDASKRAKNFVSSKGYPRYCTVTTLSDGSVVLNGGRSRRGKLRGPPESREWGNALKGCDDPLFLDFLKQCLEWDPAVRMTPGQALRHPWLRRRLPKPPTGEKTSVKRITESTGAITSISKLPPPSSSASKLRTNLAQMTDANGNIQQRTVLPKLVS
Sequence of AKT1 (human), P31749 [S473D] (P31749 whole entry S473D, looked up): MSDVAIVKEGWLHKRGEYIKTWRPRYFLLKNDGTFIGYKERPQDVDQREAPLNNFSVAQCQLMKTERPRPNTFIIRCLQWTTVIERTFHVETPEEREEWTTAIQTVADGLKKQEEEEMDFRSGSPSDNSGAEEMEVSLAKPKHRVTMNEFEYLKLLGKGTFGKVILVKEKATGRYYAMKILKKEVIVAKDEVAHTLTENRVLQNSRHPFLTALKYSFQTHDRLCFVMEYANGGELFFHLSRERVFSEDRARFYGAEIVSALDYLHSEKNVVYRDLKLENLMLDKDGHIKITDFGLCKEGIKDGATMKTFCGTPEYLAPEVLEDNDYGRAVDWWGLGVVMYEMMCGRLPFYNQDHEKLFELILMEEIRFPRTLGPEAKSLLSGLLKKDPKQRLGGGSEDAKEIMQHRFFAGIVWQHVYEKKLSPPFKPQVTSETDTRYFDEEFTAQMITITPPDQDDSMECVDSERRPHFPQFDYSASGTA

Structure (SMILES): O=C(NOC[C@H](O)CO)c1ccc(F)c(F)c1Nc1ccc(I)cc1Cl
- residual activity (JAK2 JH1 JH2 (human); compound 1.0 µM): 8%
- residual activity (JAK2 JH1 JH2 (human); compound 10.0 µM): 9%
- residual activity (DYRK3 (human); compound 1.0 µM): 85%
- residual activity (DYRK3 (human); compound 10.0 µM): 85%
- residual activity (EPHB2 (human); compound 1.0 µM): 64%
- residual activity (EPHB2 (human); compound 10.0 µM): 74%
- residual activity (EPHB4 (human); compound 1.0 µM): 90%
- residual activity (EPHB4 (human); compound 10.0 µM): 99%
- residual activity (BRSK1 (human); compound 1.0 µM): 97%
- residual activity (BRSK1 (human); compound 10.0 µM): 112%
- residual activity (EPHA2 (human); compound 1.0 µM): 86%
- residual activity (EPHA2 (human); compound 10.0 µM): 94%
- residual activity (MAPK8 (human); compound 1.0 µM): 91%
- residual activity (MAPK8 (human); compound 10.0 µM): 117%
- residual activity (AURKA (human); compound 1.0 µM): 112%
- residual activity (AURKA (human); compound 10.0 µM): 108%
- residual activity (MARK3 (human); compound 1.0 µM): 91%
- residual activity (MARK3 (human); compound 10.0 µM): 74%
- residual activity (MAPK9 (human); compound 1.0 µM): 90%
- residual activity (MAPK9 (human); compound 10.0 µM): 105%
- residual activity ([1]; compound 1.0 µM): 97%
- residual activity ([1]; compound 10.0 µM): 81%
- residual activity (MAPKAPK5 (human); compound 1.0 µM): 98%
- residual activity (MAPKAPK5 (human); compound 10.0 µM): 99%
- residual activity (BRSK2 (human); compound 1.0 µM): 94%
- residual activity (BRSK2 (human); compound 10.0 µM): 96%
- residual activity (CaMK1 (human); compound 1.0 µM): 96%
- residual activity (CaMK1 (human); compound 10.0 µM): 91%
- residual activity (MAP2K1 (human); compound 1.0 µM): 18%
- residual activity (MAP2K1 (human); compound 10.0 µM): 2%
- residual activity (BTK (human); compound 1.0 µM): 110%
- residual activity (BTK (human); compound 10.0 µM): 100%
- residual activity (FLT1 (human); compound 10.0 µM): 39%
- residual activity (PIM1 (human); compound 1.0 µM): 92%
- residual activity (PIM1 (human); compound 10.0 µM): 73%
- residual activity (PRKCA (human); compound 1.0 µM): 100%
- residual activity (PRKCA (human); compound 10.0 µM): 108%
- residual activity (HIPK2 (human); compound 1.0 µM): 93%
- residual activity (HIPK2 (human); compound 10.0 µM): 104%
- residual activity (SYK (human); compound 1.0 µM): 111%
- residual activity (EPHB1 (human); compound 1.0 µM): 95%
- residual activity (EPHB1 (human); compound 10.0 µM): 115%
- residual activity (TAOK1 (human); compound 1.0 µM): 101%
- residual activity (TAOK1 (human); compound 10.0 µM): 109%
- residual activity (GCK (human); compound 1.0 µM): 90%
- residual activity (YES1 (human); compound 1.0 µM): 82%
- residual activity (YES1 (human); compound 10.0 µM): 86%
- residual activity ([2]; compound 1.0 µM): 107%
- residual activity ([2]; compound 10.0 µM): 104%
- residual activity (DYRK2 (human); compound 1.0 µM): 99%
- residual activity (DYRK2 (human); compound 10.0 µM): 107%
- residual activity (STK3 (human); compound 1.0 µM): 83%
- residual activity (STK3 (human); compound 10.0 µM): 70%
- residual activity (MAP3K11 (human); compound 1.0 µM): 83%
- residual activity (MAP3K11 (human); compound 10.0 µM): 92%
- residual activity (MAP3K5 (human); compound 1.0 µM): 108%
- residual activity (MAP3K5 (human); compound 10.0 µM): 116%
- residual activity (HIPK1 (human); compound 1.0 µM): 84%
- residual activity (HIPK1 (human); compound 10.0 µM): 92%
- residual activity (TBK1 (human); compound 1.0 µM): 117%
- residual activity (TBK1 (human); compound 10.0 µM): 101%
- residual activity (MAPK10 (human); compound 10.0 µM): 85%

Structure (SMILES): O=C(NOCC(O)CO)c1ccc(F)c(F)c1Nc1ccc(I)cc1Cl (configuration not stated)
- residual activity (JAK2 JH1 JH2 (human); compound 1.0 µM): 5%
- residual activity (JAK2 JH1 JH2 (human); compound 10.0 µM): 8%
- residual activity (DYRK3 (human); compound 1.0 µM): 107%
- residual activity (DYRK3 (human); compound 10.0 µM): 83%
- residual activity (EPHB2 (human); compound 10.0 µM): 77%
- residual activity (EPHB4 (human); compound 1.0 µM): 98%
- residual activity (EPHB4 (human); compound 10.0 µM): 86%
- residual activity (BRSK1 (human); compound 1.0 µM): 98%
- residual activity (BRSK1 (human); compound 10.0 µM): 101%
- residual activity (EPHA2 (human); compound 1.0 µM): 112%
- residual activity (EPHA2 (human); compound 10.0 µM): 105%
- residual activity (MAPK8 (human); compound 1.0 µM): 87%
- residual activity (MAPK8 (human); compound 10.0 µM): 93%
- residual activity (AURKA (human); compound 1.0 µM): 103%
- residual activity (AURKA (human); compound 10.0 µM): 104%
- residual activity (MARK3 (human); compound 1.0 µM): 73%
- residual activity (MARK3 (human); compound 10.0 µM): 88%
- residual activity (MAP3K1 (human); compound 1.0 µM): 88%
- residual activity (MAP3K1 (human); compound 10.0 µM): 93%
- residual activity (MAPK9 (human); compound 1.0 µM): 88%
- residual activity (MAPK9 (human); compound 10.0 µM): 92%
- residual activity ([1]; compound 1.0 µM): 94%
- residual activity ([1]; compound 10.0 µM): 80%
- residual activity (MAPKAPK5 (human); compound 1.0 µM): 93%
- residual activity (MAPKAPK5 (human); compound 10.0 µM): 100%
- residual activity (BRSK2 (human); compound 1.0 µM): 108%
- residual activity (BRSK2 (human); compound 10.0 µM): 105%
- residual activity (CaMK1 (human); compound 1.0 µM): 106%
- residual activity (CaMK1 (human); compound 10.0 µM): 84%
- residual activity (MAP2K1 (human); compound 1.0 µM): 36%
- residual activity (MAP2K1 (human); compound 10.0 µM): 3%
- residual activity (BTK (human); compound 1.0 µM): 102%
- residual activity (BTK (human); compound 10.0 µM): 97%
- residual activity (FLT1 (human); compound 1.0 µM): 98%
- residual activity (FLT1 (human); compound 10.0 µM): 42%
- residual activity (PIM1 (human); compound 1.0 µM): 102%
- residual activity (PIM1 (human); compound 10.0 µM): 71%
- residual activity (PRKCA (human); compound 1.0 µM): 93%
- residual activity (PRKCA (human); compound 10.0 µM): 86%
- residual activity (HIPK2 (human); compound 1.0 µM): 102%
- residual activity (HIPK2 (human); compound 10.0 µM): 106%
- residual activity (SYK (human); compound 10.0 µM): 77%
- residual activity (EPHB1 (human); compound 1.0 µM): 107%
- residual activity (EPHB1 (human); compound 10.0 µM): 92%
- residual activity (GCK (human); compound 1.0 µM): 79%
- residual activity (GCK (human); compound 10.0 µM): 91%
- residual activity (YES1 (human); compound 1.0 µM): 76%
- residual activity (YES1 (human); compound 10.0 µM): 79%
- residual activity ([2]; compound 10.0 µM): 99%
- residual activity (DYRK2 (human); compound 1.0 µM): 107%
- residual activity (DYRK2 (human); compound 10.0 µM): 111%
- residual activity (STK3 (human); compound 1.0 µM): 71%
- residual activity (STK3 (human); compound 10.0 µM): 75%
- residual activity (MAP3K11 (human); compound 1.0 µM): 83%
- residual activity (MAP3K11 (human); compound 10.0 µM): 89%
- residual activity (MAP3K5 (human); compound 1.0 µM): 102%
- residual activity (MAP3K5 (human); compound 10.0 µM): 112%
- residual activity (HIPK1 (human); compound 1.0 µM): 96%
- residual activity (HIPK1 (human); compound 10.0 µM): 85%
- residual activity (TBK1 (human); compound 1.0 µM): 111%
- residual activity (TBK1 (human); compound 10.0 µM): 99%
- residual activity (MAPK10 (human); compound 1.0 µM): 83%

Structure (SMILES): CCOC(=O)c1ccc(N2NC(=O)/C(=C/c3ccc([N+](=O)[O-])o3)C2=O)cc1
- residual activity (JAK2 JH1 JH2 (human); compound 10.0 µM): 17%
- residual activity (DYRK3 (human); compound 10.0 µM): 55%
- residual activity (EPHB2 (human); compound 10.0 µM): 81%
- residual activity (EPHB4 (human); compound 10.0 µM): 89%
- residual activity (INSR (human)): 99%
- residual activity (BRSK1 (human); compound 10.0 µM): 86%
- residual activity (EPHA2 (human); compound 10.0 µM): 90%
- residual activity (MAPK8 (human); compound 10.0 µM): 117%
- residual activity (AURKA (human); compound 10.0 µM): 76%
- residual activity (MARK3 (human); compound 10.0 µM): 84%
- residual activity (MAPK9 (human); compound 10.0 µM): 93%
- residual activity ([1]; compound 10.0 µM): 120%
- residual activity (MAPKAPK5 (human); compound 10.0 µM): 97%
- residual activity (BRSK2 (human); compound 10.0 µM): 42%
- residual activity (CaMK1 (human); compound 10.0 µM): 102%
- residual activity (MAP2K1 (human); compound 10.0 µM): 29%
- residual activity (BTK (human); compound 10.0 µM): 70%
- residual activity (MAPK11 (human)): 113%
- residual activity (FLT1 (human); compound 10.0 µM): 47%
- residual activity (PIM1 (human); compound 10.0 µM): 109%
- residual activity (PRKCA (human); compound 10.0 µM): 96%
- residual activity (SYK (human); compound 10.0 µM): 92%
- residual activity (EPHB1 (human); compound 10.0 µM): 85%
- residual activity (TAOK1 (human); compound 10.0 µM): 126%
- residual activity (GCK (human); compound 10.0 µM): 96%
- residual activity (YES1 (human); compound 10.0 µM): 110%
- residual activity ([2]; compound 10.0 µM): 79%
- residual activity (DYRK2 (human); compound 10.0 µM): 54%
- residual activity (STK3 (human); compound 10.0 µM): 122%
- residual activity (MAP3K11 (human); compound 10.0 µM): 100%
- residual activity (HIPK1 (human); compound 10.0 µM): 98%
- residual activity (TBK1 (human); compound 10.0 µM): 100%
- residual activity (MAPK10 (human); compound 10.0 µM): 79%
